Literature values, collected in patent US12486218B2, “Compounds advantageous in the treatment of central nervous system diseases and disorders” (AurimMed Pharma, Inc., priority 2008, dated 2025).

Experiments:
sodium channels = conditions: by way of comparison; cited from earlier work
rats = conditions: male versus female kindled rats; cited from earlier work

Which “% of control inhibited, sodium currents, typical sodium-channel-blocking drugs” value (sodium channels) does the source give for `O=C1NC(=O)C(c2ccccc2)(c2ccccc2)N1` [phenytoin] here?
The value was “about 50%”.

And the “efficacy in the two genders (comparison drug)” value (rats)?
Its value is “significantly less effective in male kindled rats than it is in female kindled rats”.
